# Source: US8501246B2, “Cosmetic composition containing lingonberry extract and its uses” (Beijing Gingko Group Biological Technology, Co., Ltd., priority 2007, dated 2013)
# How the values were obtained:
# Format in all cases: cell-based
# B16 melanocytes [1] = test: Inhibition rate of melanin content (melanogenesis) in B16 melanocytes; conditions: Melanocyte, 72 hours, n = 4
# Experimental: (§1) B16 melanocytes(from SIBCB) were cultivated with RPMI-1640 culture fluid containing about 10% newborn calf serum and penicillium—streptomycin under the condition of 37° C., 5% CO2. The melanocytes were digested with about 0.125% trypsin (Difco, US) to be passaged or tested when the cell fusion reached more than about 80%.
# After the cells dissolved in strong base solution, melanin was dissolved and then the OD was tested. Melanin content was determined by Hosoi improved method. (Victoria M, Virador, Nobuhiko Kobayashi et al, A standardized protocol for assessing regulators of pigmentation. Analytical Biochemistry, 1999, 270:207˜219.)
# B16 melanocytes (1×10^5) were cultivated in 6-well cultured plate. After 24 hours incubation the solution was changed and different kinds of tested substances in different concentration were added respectively. The lingonberry extract III was prepared by the method in example 3, other substances were all bought from market.
# After 72 hours, reactants were washed by PBS for 2 times, dried by air-drying, dissolved into 400 μl 1N NaOH (containing 1% DMSO), heated at 80° C. for 1 hour and then cooled. The OD was tested by enzyme-linked immunosorbent assay instrument at 475 nm.
# Calculated every tested agents' inhibition rate of melanin content using the following formula: inhibition rate of melanin content=[1−(OD of tested group/well cell density of tested group)/(OD of control group/well cell density of control group)]*100%
# Experiment method was the same as example 7. The lingonberry extract I, II and III used as tested substance were prepared by the method in example 1, 2 and 3 respectively.
# B16 melanocytes [2] = test: MTT cell multiplication / cell survival ratio of B16 melanocytes; conditions: blank = 100, n = 6
# Experimental: B16 melanocytes (from SIBCB) were cultivated with RPMI-1640 culture fluid containing about 10% newborn calf serum and penicillium—streptomycin under the condition of about 37° C., about 5% CO2. Digest the melanocytes with about 0.125% trypsin (Difco, US) when the cell fusion reached more than about 80%.
# The activity of melanocytes multiplication was determined by measurement of […] (MTT). The B16 melanocytes at densities of about 1×10^5 were inoculated in 24-well cell cultured plate. The culture fluid was changed next day and the tested substances in different concentration were added individually: the lingonberry extract III prepared in example 3 (comprised anthocyanidin about 10%, OPC about 35% and resveratrol about 10%), arbutin bought from the market, and blank as control group.
# After 20 hours cultivation and adding about 0.15 ml MTT, the cells were cultivated continuously for about 4 hours. Centrifuged at 3000 rpm for about 10 min and deserted the supernatant, cultivated cells in every well were added DMSO (about 1%) about 1 ml and shook for dissolving thoroughly. Then about 150 μl cultivated cells aspiration were added into 96-well cell cultured plate. The OD value of the aspiration was measured with MQX200 micro-plate spectrophotometer (Bio-Tek, US), at 570 nm excitation wave length and 630 nm reference wave length.
# Calculated the inhibition ratio of tested agents on melanocytes using the following formula: melanocytes multiplication inhibition ratio=(1−OD of tested group/OD of control group)*100%
# The experimental method was the same as example 4. The lingonberry extract III was prepared by the method in example 3, pine bark extract and grape seed extract were both bought from market, blank was used as control group.
# [3] = biological target: T1, B16 melanocytes' tyrosinase (Mus musculus, UniProt P11344); test: Inhibition rate of B16 melanocytes' tyrosinase activity (L-dopa oxidation, OD 475 nm); conditions: 3 days, n = 6
# T1 construct: The cells were dissolved by 1% Troton X-100; host or cells: B16 melanocytes (melanoma cells)
# T1 sequence (P11344 19-533): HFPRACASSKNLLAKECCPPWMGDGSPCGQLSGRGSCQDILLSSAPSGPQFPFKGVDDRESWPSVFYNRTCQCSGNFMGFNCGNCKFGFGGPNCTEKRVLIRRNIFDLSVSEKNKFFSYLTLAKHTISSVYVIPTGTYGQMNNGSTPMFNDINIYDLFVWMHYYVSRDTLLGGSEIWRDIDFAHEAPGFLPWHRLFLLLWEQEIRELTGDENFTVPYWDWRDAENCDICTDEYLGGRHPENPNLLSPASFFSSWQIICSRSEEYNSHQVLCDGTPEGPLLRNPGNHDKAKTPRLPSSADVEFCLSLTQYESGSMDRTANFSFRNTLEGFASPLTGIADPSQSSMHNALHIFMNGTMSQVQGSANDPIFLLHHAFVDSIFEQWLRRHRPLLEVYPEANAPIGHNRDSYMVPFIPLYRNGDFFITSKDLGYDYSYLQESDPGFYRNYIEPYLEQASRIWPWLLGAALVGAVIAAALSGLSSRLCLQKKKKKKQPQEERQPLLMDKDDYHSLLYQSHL
# Experimental: as §1, with “containing” for “containing about”, “of about” for “of”, “than” for “than about”
# Tyrosinase activity is determined by the speed of dopa being oxidized into dopaquinone. L-dopa was used as catalysis substrate. Optical density (OD) of dopaquinone was determined at 475 nm by improved Marlinez-Esparza method. (Ando H, Itoh A, Mishima Y et al., Correlation between the number of melanosomes, tyrosinase mRNA levels, and tyrosinase activity cultured murine melanoma cells in response to various melanogenesis regulatory agents. J Cell Physiol, 1995, 163: 608-614.). The higher of the OD, the stronger of the tyrosinase.
# The lingonberry extract III was prepared by the method in example 3, other materials were all bought from market.
# After 3 days of effects of tested substance, the supernatant was deserted and the remainder was washed for 3 times with pH 7.0 PBS after centrifuging at 1000 rpm for 5 min every time. The cells were dissolved by 1% Troton X-100 400 μl adding in every well of the cultured plate. 100 μl solution in every well was taken and then added into 96-well cultured plate. After pre-temperature at 37° C., 100 μl 1.7% L-dopa (sigma, US) was added into every well. The OD A value then was determined every 10 min within 1 hour at 475 nm and 37° C., using blank as zero adjustment.
# Calculated every tested agents' inhibition rate of B16 melanocytes' tyrosinase activity using the following formula: inhibition rate of melanocytes' tyrosinase activity=(1−OD of tested group/OD of control group)*100%
# Experiment method was the same as example 6. The lingonberry extract I, II and III used as tested substance were prepared by the method in example 1, 2 and 3 respectively.
smiles,measurement,setting,value
OC[C@H]1O[C@@H](Oc2ccc(O)cc2)[C@H](O)[C@@H](O)[C@@H]1O [arbutin],inhibition at 1 µg/mL,B16 melanocytes [1]; 1 mg/L,7.27 ± 2.29%
same,inhibition at 5 µg/mL,B16 melanocytes [1]; 5 mg/L,7.59 ± 0.35%
same,inhibition at 10 µg/mL,B16 melanocytes [1]; 10 mg/L,6.23 ± 0.86%
same,inhibition at 20 µg/mL,B16 melanocytes [1]; 20 mg/L,10.8 ± 0.33%
same,inhibition at 30 µg/mL,B16 melanocytes [1]; 30 mg/L,12.1 ± 1.3%
same,cell survival ratio,B16 melanocytes [2]; 20 mg/L,110.72 ± 0.41%
same,cell survival ratio,B16 melanocytes [2]; 40 mg/L,94.30 ± 0.45%
same,cell survival ratio,B16 melanocytes [2]; 60 mg/L,91.74 ± 0.39%
same,cell survival ratio,B16 melanocytes [2]; 80 mg/L,79.66 ± 1.08%
same,inhibition at 1 µg/mL,[3]; 1 mg/L,7.19%
same,inhibition at 5 µg/mL,[3]; 5 mg/L,10.4 ± 2.97%
same,inhibition at 10 µg/mL,[3]; 10 mg/L,20.5 ± 1.63%
same,inhibition at 20 µg/mL,[3]; 20 mg/L,46.4 ± 2.53%
same,inhibition at 30 µg/mL,[3]; 30 mg/L,53.3 ± 2.27%
